By IC50 is commonly meant the concentration that gives 50% inhibition.

In this experiment the target is human recombinant GPR65 (Homo sapiens, UniProt Q8IYL9). The experiment can be described thus: Human GPR65 cAMP HTRF antagonist assay. It counts as cell-based. Put shortly: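 1321N1 astrocytoma cells stably expressing hrGPR65, with IBMX and EDTA, were preincubated with compound 30 min at room temperature, then acid-activated at assay pH 7.2 (control pH 7.9) for 30 min. cAMP read by HTRF (665/620 nm ratio); IC50 from 4-parameter fit normalised to high/low controls.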
Chain of human recombinant GPR65 (Q8IYL9 whole entry): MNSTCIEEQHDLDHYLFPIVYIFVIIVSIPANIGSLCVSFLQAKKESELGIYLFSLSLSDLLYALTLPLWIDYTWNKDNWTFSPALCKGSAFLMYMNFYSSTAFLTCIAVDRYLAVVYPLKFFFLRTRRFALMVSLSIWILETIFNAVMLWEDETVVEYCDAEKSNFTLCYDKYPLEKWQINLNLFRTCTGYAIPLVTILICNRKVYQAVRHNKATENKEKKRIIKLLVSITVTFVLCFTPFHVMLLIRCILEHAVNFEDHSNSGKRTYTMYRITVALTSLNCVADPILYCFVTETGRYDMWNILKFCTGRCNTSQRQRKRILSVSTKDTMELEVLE
Take `O=C(Nc1cc(-c2cncc(F)c2)c(C(F)(F)F)cc1F)N1[C@H]2CC[C@@H]1c1c[nH]c(=O)cc1C2` [Compound 255, (6S,9R)-N-(2-Fluoro-5-(5-fluoropyridin-3-yl)-4-(trifluoromethyl)phenyl)-3-oxo-3,5,6,7,8,9-hexahydro-2H-6,9-epiminocyclohepta[c]pyridine-10-carboxamide]: the IC50 was under 500 nM. The figure for `O=C(Nc1cc(-c2cncc(F)c2)c(C(F)(F)F)cc1F)N1[C@H]2CC[C@@H]1c1ccnc(F)c1C2` [Compound 256, (5R,8S)-1-fluoro-N-(2-fluoro-5-(5-fluoropyridin-3-yl)-4-(trifluoromethyl)phenyl)-6,7,8,9-tetrahydro-5H-5,8-epiminocyclohepta[c]pyridine-10-carboxamide] is under 500 nM; for `O=C(Nc1cc(-c2cncc(F)c2)c(C(F)(F)F)cc1F)N1[C@H]2CC[C@@H]1c1n[nH]c(=O)cc1C2` [Compound 257, (6S,9R)-N-(2-Fluoro-5-(5-fluoropyridin-3-yl)-4-(trifluoromethyl)phenyl)-3-oxo-3,5,6,7,8,9-hexahydro-2H-6,9-epiminocyclohepta[c]pyridazine-10-carboxamide] it is under 500 nM. The figure for `O=C(Nc1cc(-c2ccccc2)c(C(F)(F)F)cc1F)N1[C@H]2CC[C@@H]1c1n[nH]c(=O)cc1C2` [Compound 258, (6S,9R)-N-(4-Fluoro-6-(trifluoromethyl)-[1,1′-biphenyl]-3-yl)-3-oxo-3,5,6,7,8,9-hexahydro-2H-6,9-epiminocyclohepta[c]pyridazine-10-carboxamide] is under 500 nM; for `O=C(Nc1cc(-c2ccc3nonc3c2)c(C(F)(F)F)cc1F)N1[C@H]2CC[C@@H]1c1c[nH]c(=O)cc1C2` [Compound 259, (6S,9R)-N-(5-(Benzo[c][1,2,5]oxadiazol-5-yl)-2-fluoro-4-(trifluoromethyl)phenyl)-3-oxo-3,5,6,7,8,9-hexahydro-2H-6,9-epiminocyclohepta[c]pyridine-10-carboxamide] it is under 500 nM. For `O=C(Nc1cc(Cl)c(-c2cc(F)cnc2F)cc1F)N1[C@H]2CC[C@@H]1c1ccnc(F)c1C2` [Compound 260, (5R,8S)-N-(5-Chloro-4-(2,5-difluoropyridin-3-yl)-2-fluorophenyl)-1-fluoro-6,7,8,9-tetrahydro-5H-5,8-epiminocyclohepta[c]pyridine-10-carboxamide] the value was under 500 nM. Regarding `O=C(Nc1cc(Cl)c(-c2cnc(F)c(F)c2)cc1F)N1[C@H]2CC[C@@H]1c1c[nH]c(=O)cc1C2` [Compound 261, (6S,9R)-N-(5-Chloro-4-(5,6-difluoropyridin-3-yl)-2-fluorophenyl)-3-oxo-3,5,6,7,8,9-hexahydro-2H-6,9-epiminocyclohepta[c]pyridine-10-carboxamide], the 50% inhibitory concentration (IC50) was under 500 nM.

For `O=C(Nc1cc(Cl)c(-c2cnc(F)c(F)c2)cc1F)N1[C@H]2CC[C@@H]1c1ccnc(F)c1C2` [Compound 262, (5R,8S)-N-(5-chloro-4-(5,6-difluoropyridin-3-yl)-2-fluorophenyl)-1-fluoro-6,7,8,9-tetrahydro-5H-5,8-epiminocyclohepta[c]pyridine-10-carboxamide], the IC50 was under 500 nM. For `CCOc1ccc(-c2cc(F)c(NC(=O)N3[C@H]4CC[C@@H]3c3ccnc(F)c3C4)cc2Cl)cn1` [Compound 263, (5R,8S)-N-(5-Chloro-4-(6-ethoxypyridin-3-yl)-2-fluorophenyl)-1-fluoro-6,7,8,9-tetrahydro-5H-5,8-epiminocyclohepta[c]pyridine-10-carboxamide] the value was under 500 nM. As for `COc1cc(-c2cc(F)c(NC(=O)N3[C@H]4CC[C@@H]3c3ccnc(F)c3C4)cc2Cl)ccn1` [Compound 264, (5R,8S)-N-(5-Chloro-2-fluoro-4-(2-methoxypyridin-4-yl)phenyl)-1-fluoro-6,7,8,9-tetrahydro-5H-5,8-epiminocyclohepta[c]pyridine-10-carboxamide], the concentration for half-maximal inhibition (IC50) is under 500 nM.

The values are drawn from patent publication US20240368173A1, “TRICYCLIC GPR65 MODULATORS” (PATHIOS THERAPEUTICS LIMITED, priority 2021, published 2024).
